Source: patent US11691968B2, “Compound having KDM5 inhibitory activity and pharmaceutical use thereof” (ONO PHARMACEUTICAL CO., LTD., priority 2020, dated 2023)
Read-outs that look alike come from different tables or passages of the source.

Columns and labels:
[1] = Brain Concentration in Mice; assay type: in vivo; conditions: mouse, mice (C57BL/6), read-out: Unbound-Brain Concentration at 2 h at 1 mg/kg
Description: Brain Concentration in Mice
Test compounds were orally administered to mice (C57BL/6) at 1 or 3 mg/kg. Brain samples were collected 2 h after the administration and homogenized with 3-fold volumes of distilled water.
LC-MS/MS analysis was conducted as specified below. Standard calibration samples were prepared using the same matrix and analyzed in the same manner.
Standard calibration samples were analyzed to calculate a regression equation from the peak area ratio (test compound/internal standard). The peak area ratio was determined for a measurement sample and assigned to the regression equation to calculate an assay value.

[2] = Metabolic Stability in Human Liver Microsomes; assay type: in vitro ADME
Description: Metabolic Stability in Human Liver Microsomes
Human liver microsome (BD Gentest Corporation, Cat No. #452161) incubations were conducted in duplicate in 96-well plates. Each well contains 40 μL of 0.1 M potassium phosphate buffer (pH 7.4), 4.125 mM MgCl2, 0.625 mg/mL liver microsomes, and test compound (1.25 μM). After 5-min preincubation at 37° C., 10 uL of 5.0 mM NADPH in 0.1M potassium phosphate buffer was added to initiate the enzymatic reaction. The final component concentrations are 0.1M potassium phosphate buffer (pH 7.4), 1.0 mM NADPH, 3.3 mM MgCl2, 0.5 mg/mL liver microsomes, and test compound (1.0 μM). Reactions were terminated at 0 and 60 min by adding 200 μL of ice-cold acetonitrile containing internal standard.
LC-MS/MS analysis was conducted as specified below.
The remaining at 60 min (%) of test compound was calculated from the peak area ratio (test compound/internal standard) of samples collected 0 and 60 min after the start of the reaction according to the formula described below. Remaining at 60 min (%)=peak area ratio of sample collected at 60 min/peak area ratio of sample collected at 0 min×100 [Results]

KDM5A = KDM5A (Homo sapiens (Human), UniProt P29375); experiment: Biochemical KDM5A Inhibition Assay (HTRF); conditions: KDM5A protein, biotin-labelled H3K4-Me3 substrate
Chain of KDM5A (P29375 whole entry): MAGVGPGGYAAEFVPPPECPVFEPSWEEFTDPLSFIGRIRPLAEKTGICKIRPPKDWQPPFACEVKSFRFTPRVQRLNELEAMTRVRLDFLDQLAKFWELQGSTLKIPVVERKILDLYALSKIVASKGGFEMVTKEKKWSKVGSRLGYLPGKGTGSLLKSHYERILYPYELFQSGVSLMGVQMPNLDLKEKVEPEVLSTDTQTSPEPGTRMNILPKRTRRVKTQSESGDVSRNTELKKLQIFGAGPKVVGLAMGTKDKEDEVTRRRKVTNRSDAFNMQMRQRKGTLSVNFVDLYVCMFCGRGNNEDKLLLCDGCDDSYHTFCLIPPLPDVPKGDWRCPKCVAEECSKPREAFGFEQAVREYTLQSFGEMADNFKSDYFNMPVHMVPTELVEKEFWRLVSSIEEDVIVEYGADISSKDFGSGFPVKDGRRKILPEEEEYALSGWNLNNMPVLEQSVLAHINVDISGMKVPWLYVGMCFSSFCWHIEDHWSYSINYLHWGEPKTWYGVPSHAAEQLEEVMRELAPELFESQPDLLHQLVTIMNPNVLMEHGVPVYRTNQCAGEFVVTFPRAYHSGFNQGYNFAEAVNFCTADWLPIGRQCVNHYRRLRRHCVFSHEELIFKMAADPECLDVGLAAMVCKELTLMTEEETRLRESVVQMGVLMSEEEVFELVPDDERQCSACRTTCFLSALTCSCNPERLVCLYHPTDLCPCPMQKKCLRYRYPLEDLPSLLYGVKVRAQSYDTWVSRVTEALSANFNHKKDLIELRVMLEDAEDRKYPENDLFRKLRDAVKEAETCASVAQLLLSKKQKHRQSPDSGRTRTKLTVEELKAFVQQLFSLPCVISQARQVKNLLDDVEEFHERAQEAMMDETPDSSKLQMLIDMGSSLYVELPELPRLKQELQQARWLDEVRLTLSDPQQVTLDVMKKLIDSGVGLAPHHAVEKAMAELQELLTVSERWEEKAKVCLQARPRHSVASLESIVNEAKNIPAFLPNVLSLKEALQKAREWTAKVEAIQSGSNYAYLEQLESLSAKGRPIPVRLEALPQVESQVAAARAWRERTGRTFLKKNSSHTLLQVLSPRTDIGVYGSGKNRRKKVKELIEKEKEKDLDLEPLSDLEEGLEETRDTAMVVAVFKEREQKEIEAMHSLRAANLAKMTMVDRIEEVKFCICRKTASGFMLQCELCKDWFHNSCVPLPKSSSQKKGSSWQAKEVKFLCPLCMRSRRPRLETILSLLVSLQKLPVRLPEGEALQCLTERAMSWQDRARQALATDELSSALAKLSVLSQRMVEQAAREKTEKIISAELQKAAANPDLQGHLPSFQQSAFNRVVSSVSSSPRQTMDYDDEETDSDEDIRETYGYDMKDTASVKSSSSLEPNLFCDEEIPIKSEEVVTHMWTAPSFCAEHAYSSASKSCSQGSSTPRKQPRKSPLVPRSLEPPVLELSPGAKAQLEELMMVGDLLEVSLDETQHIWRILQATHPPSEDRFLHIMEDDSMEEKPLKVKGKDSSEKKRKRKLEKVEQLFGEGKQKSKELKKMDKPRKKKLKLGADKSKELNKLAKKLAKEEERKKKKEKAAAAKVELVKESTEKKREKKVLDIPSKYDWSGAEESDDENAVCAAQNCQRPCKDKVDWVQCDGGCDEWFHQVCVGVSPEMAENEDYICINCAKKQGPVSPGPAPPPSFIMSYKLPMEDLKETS
Description: Biochemical KDM5A Inhibition Assay
Using 384-well white Greiner784075 (Greiner), representative compounds were characterized for their inhibition of KDM5A using HTRF® technology (Cisbio Bioassays). Briefly, the test compounds, reference compounds, and DMSO control (typical compound concentration range 1 μM-[…], final assay concentration (FAC*) of DMSO 0.5%) were added to 384-well plate by the Echo® acoustic dispensing platform (Labcyte). Five (5) 1l of KDM5A protein (produced by the method described in Nat Chem Biol 12, 531-538 (2016)). (5-20 nM FAC*) in assay buffer (50 mM MES, 50 mM NaCl, 1 mM TCEP, 0.01% v/v Tween 20, 0.03% BSA, pH 6.5) was added to wells and plates were incubated for 10-20 minutes at 25 degrees celsius. Then, 5 μl of alpha-ketoglutaric acid (100 μM FAC*), biotin-labelled H3K4-Me3 substrate (Anaspec Cat #AS-64357-1; 200 nM FAC*), Fe(II)SO4 (100 μM FAC*) and ascorbic acid (2 mM FAC*) in assay buffer was added to wells and plates were incubated for 20 minutes at room temperature. The reaction was stopped with the addition of 10 μl of anti-H3K4-Me2-Eu(K) (Cisbio Bioassays Cat #61KA2KAH; 0.75 nM FAC**)+Streptavidin XL665 (Cisbio Bioassays Cat #610SAXLB; 25 nM FAC**) in HTRF detection buffer (Cisbio Bioassays Cat #62SDBRDF). The mixture was incubated for 30 minutes at room temperature before 340 nm excitation and measurement of dual emission at 620 nm and 665 run. *FAC: final assay concentration calculated based on 10 μl of the assay buffer**FAC: final assay concentration calculated based on 20 μl of the detection buffer
The raw data (a 665 nm and a 620 nm reading from each well) for individual assay plates were analyzed. The ratio of emissions was calculated using the following calculation: Ratio=(665 nm emission/620 nm emission)×10000. […] Compound IC50 values were calculated from graphs of % inhibition plotted against compound concentration, using a four parameter curve fit. [Results]

[3] = po, orally administered, 1 mg/kg, brain 2 h after administration
[4] = 0.5 mg/mL liver microsomes, 1.0 μM test compound, 1.0 mM NADPH, 37° C., 60 min
[5] = human, microsomes, 1 h, 1 μM, pH 7.4

IC50 (KDM5A) | Metabolic stability in human liver microsomes (% remaining at 60 min) [2, 5] | concentration at 2 h ([1]; brain, oral, 2 h, values with * obtained by proportional calculation from the 3 mg/kg data) | Structure (SMILES) | concentration at 2 h [1, 3] | Metabolic stability in human liver microsomes (% remaining at 60 min) [2, 4]
60 nM | 100% |  | CC(C)n1cnc(C(=O)N2C[C@@H]3[C@H](C2)[C@@]3(C)C2=NOC(C)(C)C2)c1 [Example 81, [(1R,5S,6r)-6-(5,5-dimethyl-4,5-dihydro-1,2-oxazol-3-yl)-6-methyl-3-azabicyclo[3.1.0]hex-3-yl](1-isopropyl-1H-imidazol-4-yl)methanone] | 21.9 ng/g | 
30 nM | 104% |  | CC1(C)CC([C@@]2(C)[C@@H]3CN(C(=O)c4cn(C5CC5)cn4)C[C@@H]32)=NO1 [Example 82, (1-cyclopropyl-1H-imidazol-4-yl)[(1R,5S,6r)-6-(5,5-dimethyl-4,5-dihydro-1,2-oxazol-3-yl)-6-methyl-3-azabicyclo[3.1.0]hex-3-yl]methanone] | 57.4 ng/g | 
70 nM | 95% | 39.5 ng/g | CC(C)c1cc(C(=O)N2C[C@@H]3[C@H](C2)[C@H]3C2=NOC(C)(C)C2)n[nH]1 [Example 88, [(1R,5S,6r)-6-(5,5-dimethyl-4,5-dihydro-1,2-oxazol-3-yl)-3-azabicyclo[3.1.0]hex-3-yl](5-isopropyl-1H-pyrazol-3-yl)methanone] |  | 

Structure (SMILES) | IC50 (KDM5A) | Metabolic stability in human liver microsomes (% remaining at 60 min) [2, 5] | concentration at 2 h ([1]; brain, oral, 2 h, values with * obtained by proportional calculation from the 3 mg/kg data) | concentration at 2 h [1, 3] | Metabolic stability in human liver microsomes (% remaining at 60 min) [2, 4]
O=C(c1cn(C2CC2)cn1)N1C[C@@H]2[C@H](C1)[C@H]2C1=NOC2(CC2)C1 [Example 51, (1-cyclopropyl-1H-imidazol-4-yl)[(1R,5S,6r)-6-(4-oxa-5-azaspiro[2.4]hept-5-en-6-yl)-3-azabicyclo[3.1.0]hex-3-yl]methanone] | 20 nM |  |  | 55.3 ng/g | 95%
C[C@]1(C2=NOC3(CC3)C2)[C@@H]2CN(C(=O)c3cn(C4CC4)cn3)C[C@@H]21 [Example 85, (1-cyclopropyl-1H-imidazol-4-yl)[(1R,5S,6r)-6-methyl-6-(4-oxa-5-azaspiro[2.4]hept-5-en-6-yl)-3-azabicyclo[3.1.0]hex-3-yl]methanone] | 20 nM |  |  | 76.7 ng/g | 98%
